The values below are quoted from earlier work in US20110294763A1, “TRANSDERMAL DELIVERY OF DICOLFENAC, CARBAMAZEPINE AND BENZYDAMINE” (priority 2009, published 2011).

Turning to `CN(C)CCCOc1nn(Cc2ccccc2)c2ccccc12` [Benzydamine base], the Solubility in water result is reported as “insoluble”.
